For test [1], the target named is T1, MAGL (Mus musculus (Mouse), UniProt O35678). Put plainly: Mouse brain proteomes from inhibitor treated mice (oral gavage, sacrificed 4 h after administration, ABPP analysis). The format is in vivo, mouse (C57Bl/6J). As to conditions: 5 mg/kg oral gavage. The procedure:
(§1) Preparation of Mouse Brain Proteomes from Inhibitor Treated Mice.
(§2) Inhibitors were administered to wild-type C57Bl/6J by oral gavage in a vehicle, e.g. PEG400/Ethanol/PBS (7/2/1). Each animal was sacrificed 4 h following administration and brain proteomes were prepared and analyzed according to previously established methods (See Niphakis, M. J., et al. (2011) ACS Chem. Neurosci. and Long, J. Z., et al. Nat. Chem. Biol. 5:37-44). Data from this assay is shown in Table 2 (% inhibition at 5 mg/kg).

Test [2] addresses T2, ABHD6 (Mus musculus (Mouse), UniProt Q8R2Y0). Put plainly: In vitro competitive activity-based protein profiling (mouse brain membrane fraction or cell lysates), ABHD6 band. Type of test: biochemical. The following applies: mouse proteome; for inhibition at 1 µM: read-out: ABHD6 % Inh 1 μM (mouse); for IC50: competitive ABPP. A digest of the protocol: (§3)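 Competitive ABPP: proteome 1.0 mg/mL protein + inhibitor, 30 min, 37° C; FP-Rh probe (stock 50 μM in DMSO) added, 30 min, 37° C; SDS quench, SDS-PAGE, fluorescent band intensity read.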

The target of test [3] is T1, MAGL. Put plainly: In vitro competitive activity-based protein profiling (mouse brain membrane fraction or cell lysates), MAGL band. As to conditions: mouse proteome; for inhibition at 1 µM: read-out: MAGL % Inh 1 μM (mouse); for IC50: competitive ABPP. The format is biochemical. Here is the method:
In Vitro Competitive Activity-Based Protein Profiling.
Proteomes (mouse brain membrane fraction or cell lysates) (50 μL, 1.0 mg/mL total protein concentration) were preincubated with varying concentrations of inhibitors at 37° C. After 30 min, FP—Rh (1.0 μL, 50 μM in DMSO) was added and the mixture was incubated for another 30 min at 37° C. Reactions were quenched with SDS loading buffer (50 μL-4×) and run on SDS-PAGE.

Test [4] has as its target T3, FAAH (Mus musculus (Mouse), UniProt O08914). Briefly: Mouse brain proteomes from inhibitor treated mice (oral gavage, sacrificed 4 h after administration, ABPP analysis), FAAH. The format is in vivo, mouse (C57Bl/6J). The following applies: 5 mg/kg oral gavage. The procedure:
as §1, §2

Test [5] concerns the target T3, FAAH. Briefly: In vitro competitive activity-based protein profiling (mouse brain membrane fraction or cell lysates), FAAH band. The format is biochemical. As to conditions: mouse proteome; for inhibition at 1 µM: read-out: FAAH % Inh 1 μM (mouse); for IC50: competitive ABPP. In outline: as §3
Test [6] has as its target T2, ABHD6. Put plainly: Mouse brain proteomes from inhibitor treated mice (oral gavage, sacrificed 4 h after administration, ABPP analysis), ABHD6. As to conditions: 5 mg/kg oral gavage. The format is in vivo, mouse (C57Bl/6J). Here is the method: as §1, §2

T3 sequence (O08914 whole entry): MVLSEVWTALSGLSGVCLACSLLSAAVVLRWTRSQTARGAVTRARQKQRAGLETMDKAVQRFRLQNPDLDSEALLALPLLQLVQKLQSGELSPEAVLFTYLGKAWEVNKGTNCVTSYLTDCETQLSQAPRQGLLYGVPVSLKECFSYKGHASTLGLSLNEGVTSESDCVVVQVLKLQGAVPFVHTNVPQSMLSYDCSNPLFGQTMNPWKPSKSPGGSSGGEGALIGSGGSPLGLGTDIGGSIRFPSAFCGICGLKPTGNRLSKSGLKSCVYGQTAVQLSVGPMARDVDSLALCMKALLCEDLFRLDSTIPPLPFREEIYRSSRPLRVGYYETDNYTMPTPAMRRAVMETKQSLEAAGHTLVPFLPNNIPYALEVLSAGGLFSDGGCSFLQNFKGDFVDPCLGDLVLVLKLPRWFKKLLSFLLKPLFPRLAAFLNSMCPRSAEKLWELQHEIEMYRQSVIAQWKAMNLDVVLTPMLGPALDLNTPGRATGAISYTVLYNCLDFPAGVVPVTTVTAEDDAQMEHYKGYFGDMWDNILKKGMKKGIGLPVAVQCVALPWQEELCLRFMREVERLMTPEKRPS
T2 sequence (Q8R2Y0 whole entry): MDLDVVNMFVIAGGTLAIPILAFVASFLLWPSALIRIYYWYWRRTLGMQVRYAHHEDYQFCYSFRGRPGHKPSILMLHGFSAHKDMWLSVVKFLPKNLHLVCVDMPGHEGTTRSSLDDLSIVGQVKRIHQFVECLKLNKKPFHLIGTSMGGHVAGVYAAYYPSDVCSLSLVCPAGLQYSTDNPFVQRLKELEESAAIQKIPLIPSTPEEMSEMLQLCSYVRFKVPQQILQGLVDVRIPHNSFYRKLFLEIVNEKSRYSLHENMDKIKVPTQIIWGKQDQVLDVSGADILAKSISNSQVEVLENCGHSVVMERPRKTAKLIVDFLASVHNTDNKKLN
T1 sequence (O35678 whole entry): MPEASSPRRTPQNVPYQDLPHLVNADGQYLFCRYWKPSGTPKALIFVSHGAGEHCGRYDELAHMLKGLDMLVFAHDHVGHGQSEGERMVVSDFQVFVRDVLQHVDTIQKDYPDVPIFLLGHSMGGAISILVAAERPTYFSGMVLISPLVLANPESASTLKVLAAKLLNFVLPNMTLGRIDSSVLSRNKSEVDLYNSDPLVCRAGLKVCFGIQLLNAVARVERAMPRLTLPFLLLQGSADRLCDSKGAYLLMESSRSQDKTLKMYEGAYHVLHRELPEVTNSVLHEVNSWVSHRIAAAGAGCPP

In the case of `O=C(OC(C(F)(F)F)C(F)(F)F)N1CCC2(CCCN2Cc2cc(Cl)cc(N3CCOCC3)c2)CC1` [Example 33, 1,1,1,3,3,3-Hexafluoropropan-2-yl 1-(3-chloro-5-morpholinobenzyl)-1,8-diazaspiro[4.5]decane-8-carboxylate], the “MAGL % Inh 5 mg/kg (mouse)” value on MAGL [1] is on record as “### (### is ≥75%)”. The inhibition at 1 µM at ABHD6 [2] was below 25%; on MAGL [3], above 75%; on FAAH [5], below 25%. Further, the IC50 on ABHD6 [2] is above 1000 nM; at MAGL [3], below 100 nM; at FAAH [5], above 1000 nM. Further, the “FAAH % Inh 5 mg/kg (mouse)” value on FAAH [4] is on record as “## (## is equal to or greater than 25% but less than 75%)”. Besides, the “ABHD6 % Inh 5 mg/kg (mouse)” value at ABHD6 [6] is on record as “# (# is <25%)”.
As for `O=C(OC(C(F)(F)F)C(F)(F)F)N1CCC2(CCCN2Cc2cc(Cl)cc(N3CCCC3)c2)CC1` [Example 34, 1,1,1,3,3,3-Hexafluoropropan-2-yl 1-(3-chloro-5-(pyrrolidin-1-yl)benzyl)-1,8-diazaspiro[4.5]decane-8-carboxylate], on MAGL [1], the “MAGL % Inh 5 mg/kg (mouse)” value is “### (### is ≥75%)”. The inhibition at 1 µM was below 25% at ABHD6 [2], above 75% on MAGL [3] and below 25% at FAAH [5]. For the same compound, the IC50 on ABHD6 [2] is above 1000 nM; at MAGL [3], below 100 nM; at FAAH [5] it was above 1000 nM. Moreover, the “FAAH % Inh 5 mg/kg (mouse)” value on FAAH [4] is recorded as “# (# is <25%)”. On ABHD6 [6], the “ABHD6 % Inh 5 mg/kg (mouse)” value is given as “# (# is <25%)”.
Regarding `O=C(OC(C(F)(F)F)C(F)(F)F)N1CCC2(CCCN2Cc2cc(N3CCOCC3)cc(C(F)(F)F)c2)CC1` [Example 35, 1,1,1,3,3,3-Hexafluoropropan-2-yl 1-(3-morpholino-5-(trifluoromethyl)benzyl)-1,8-diazaspiro[4.5]decane-8-carboxylate], on MAGL [1], the “MAGL % Inh 5 mg/kg (mouse)” value is recorded as “### (### is ≥75%)”. In addition, the inhibition at 1 µM on ABHD6 [2] is below 25%; at MAGL [3], above 75%; on FAAH [5], below 25%. Besides, the IC50 on ABHD6 [2] was above 1000 nM; on MAGL [3], below 100 nM; at FAAH [5], above 1000 nM. For the same compound, on FAAH [4], the “FAAH % Inh 5 mg/kg (mouse)” value is given as “# (# is <25%)”. Besides, at ABHD6 [6], the “ABHD6 % Inh 5 mg/kg (mouse)” value is on record as “# (# is <25%)”.
Turning to `O=C(OC(C(F)(F)F)C(F)(F)F)N1CCC2(CCCN2Cc2cc(N3CCCC3)cc(C(F)(F)F)c2)CC1` [Example 36, 1,1,1,3,3,3-Hexafluoropropan-2-yl 1-(3-(pyrrolidin-1-yl)-5-(trifluoromethyl)benzyl)-1,8-diazaspiro[4.5]decane-8-carboxylate], the “MAGL % Inh 5 mg/kg (mouse)” value on MAGL [1] is “### (### is ≥75%)”. In addition, the inhibition at 1 µM at ABHD6 [2] was below 25%; on MAGL [3] it was above 75%; at FAAH [5], below 25%. Further, the concentration for half-maximal inhibition (IC50) on ABHD6 [2] is above 1000 nM; at MAGL [3], below 100 nM; at FAAH [5] it was above 1000 nM. The “FAAH % Inh 5 mg/kg (mouse)” value at FAAH [4] was “# (# is <25%)”. The “ABHD6 % Inh 5 mg/kg (mouse)” value at ABHD6 [6] is listed as “# (# is <25%)”.
For `O=C(OC(C(F)(F)F)C(F)(F)F)N1CCC2(CCCN2Cc2cc(OC(F)(F)F)cc(N3CCOCC3)c2)CC1` [Example 37, 1,1,1,3,3,3-Hexafluoropropan-2-yl 1-(3-morpholino-5-(trifluoromethoxy)benzyl)-1,8-diazaspiro[4.5]decane-8-carboxylate], the “MAGL % Inh 5 mg/kg (mouse)” value on MAGL [1] is given as “### (### is ≥75%)”. For the same compound, the inhibition at 1 µM is below 25% on ABHD6 [2], above 75% at MAGL [3] and below 25% at FAAH [5]. Besides, the concentration for half-maximal inhibition (IC50) on ABHD6 [2] was above 1000 nM; at MAGL [3] it was below 100 nM; on FAAH [5] it was above 1000 nM. For the same compound, the “FAAH % Inh 5 mg/kg (mouse)” value at FAAH [4] was “# (# is <25%)”. For the same compound, the “ABHD6 % Inh 5 mg/kg (mouse)” value at ABHD6 [6] was “# (# is <25%)”.

For orientation: IC50 means the concentration that gives 50% inhibition. The low end stands for greater potency, the high end for weaker potency.

These data come from US10030020B2, “Spirocycle compounds and methods of making and using same” (Abide Therapeutics, Inc., priority 2016, dated 2018).
